Holding throughout (type): cell-based
The subject of assay [1] is KRAS-G12D mutant tumor cells AGS. As to the kind of experiment: Cell Proliferation Inhibition Assay (AGS), Cell-titer GLO, 96 h. Conditions: AGS cells, 96 h incubation, Cell-titer GLO, read-out: AGS(G12D). Put shortly: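 Inhibition % was derived from CellTiter-Glo luminescence (max minus measured, over max minus blank) and fitted to give IC50. Cells were KRAS-G12D AGS in low-attachment wells, treated for 96 h at 37°C.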

Assay [2] addresses T1, KRAS G12D-cRAF (Homo sapiens, UniProt P01116, G12D).
T1 construct: expressed in transfected cells
Description: Cellular KRAS G12D-cRAF Binding Inhibition Assay (NanoBRET, AD293 stable cells). Conditions: 3 h incubation, read-out: NanoBRET KRAS G12D. The method in brief:
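IC50 values derive from fitted % inhibition, normalised to maximum signal and medium-only blank. The read-out is NanoBRET between KRAS G12D-NanoLuc (donor) and cRAF RBD-HaloTag labelled with the 618 ligand (acceptor), in live stably transfected AD293 cells at 1×10^4/well.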
(In general: Bioluminescence resonance energy transfer reports proximity on the nanometre scale.)

Assay [3] relates to KRAS-G12V mutant tumor cells SW620. Description: Cell Proliferation Inhibition Assay (SW620), Cell-titer GLO, 96 h. Conditions: SW620 cells, 96 h incubation, Cell-titer GLO, read-out: SW620(G12V). The method in brief:
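Readout: Cell-titer GLO luminescence after 96 h at 37°C, converted to percent inhibition against 0.5% DMSO and blank controls, with IC50 from curve fit. Low-attachment SW620 cultures (1×10^3 cells/well) were dosed at 10000–0.03 nM final.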

Assay [4] concerns the target T2, KRAS G12V-cRAF (Homo sapiens, UniProt P01116, G12V).
T2 construct: expressed in transfected cells
As to the kind of experiment: Cellular KRAS G12V-cRAF Binding Inhibition Assay (NanoBRET, AD293 stable cells). Conditions: 3 h incubation, read-out: NanoBRET KRAS G12V. Put shortly: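 Binding measured as BRET between NanoLuc and HaloTag-bound NanoBRET 618 ligand (added overnight) in stably expressing AD293 cells. Signals were converted to percent inhibition against max and blank wells and fitted for IC50.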

Read-outs that look alike come from different tables or passages of the source.

T2 sequence (P01116 1-188 isoform P01116-2 G12V): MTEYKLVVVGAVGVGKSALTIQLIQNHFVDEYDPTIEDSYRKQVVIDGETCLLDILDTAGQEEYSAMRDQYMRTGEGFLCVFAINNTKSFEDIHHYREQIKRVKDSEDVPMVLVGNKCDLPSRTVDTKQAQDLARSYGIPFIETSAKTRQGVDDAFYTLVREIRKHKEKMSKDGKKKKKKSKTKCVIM
T1 sequence (P01116 1-188 isoform P01116-2 G12D): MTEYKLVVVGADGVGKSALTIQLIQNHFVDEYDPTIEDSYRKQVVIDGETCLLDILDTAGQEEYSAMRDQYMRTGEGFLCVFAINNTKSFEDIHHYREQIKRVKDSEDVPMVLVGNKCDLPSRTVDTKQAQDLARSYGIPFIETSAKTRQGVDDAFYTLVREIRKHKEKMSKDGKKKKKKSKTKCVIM

As to `CCN1CCN(c2cnc3c(c2)-c2c4c5cc(ccc5n2CC(C)COC3C)-c2csc(n2)CC(NC(=O)C2CC2C(F)F)C(=O)N2CCCC(N2)C(=O)OCC(C)(C)C4)CC1` [Example 161, (1S,2S)-2-(difluoromethyl)-N-((1^5S,1^8R,6^3S,4S,Z)-1^2-(4-ethylpiperazin-1-yl)-1^5,1^8,10,10-tetramethyl-5,7-dioxo-1^8,1^9,6^1,6^2,6^3,6^4,6^5,6^6-octahydro-1^5H,1^7H-8-oxa-1(13,15)-pyrido[3',2':7,8][1,5]oxazonino[5,6-a]indola-2(4,2)-thiazola-6(1,3)-pyridazinacycloundecaphane-4-yl)cyclopropane-1-c arboxamide], the IC50 in assay [1] (Homo sapiens, AGS, 96 h) stood at 0.71 nM; in assay [2], 0.92 nM; in assay [3] (Homo sapiens, SW-620, 96 h) it was 0.24 nM; in assay [4], 4.52 nM.

Turning to `CC1OCCCn2c(c3c4cc(ccc42)-c2csc(n2)CC(NC(=O)C2C(C)C2C)C(=O)N2CCCC(N2)C(=O)OCC(C)(C)C3)-c2cc(N3CC(C)N(C)C(C)C3)cnc21` [Example 165, (1r,2R,3S)-2,3-dimethyl-N-((1^5S,6^3S,4S,Z)-1^5,10,10-trimethyl-5,7-dioxo-1^2-((3S,5R)-3,4,5-trimethylpiperazin-1-yl)-1^8,1^9,6^1,6^2,6^3,6^4,6^5,6^6-octahydro-1^5H,1^7H-8-oxa-1(13,15)-pyrido[3',2':7,8][1, 5]oxazonino[5,6-a]indola-2(4,2)-thiazola-6(1,3)-pyridazinacycloundecaphane-4-yl)cyclopropane-1-carboxamide], the IC50 was found to be 0.19 nM in assay [1] (Homo sapiens, AGS, 96 h); 0.76 nM in assay [2]; 0.05 nM in assay [3] (Homo sapiens, SW-620, 96 h); 3.8 nM in assay [4].

Regarding `CC1OCCCn2c(c3c4cc(ccc42)-c2csc(n2)CC(NC(=O)C2C(C)C2C)C(=O)N2CCCC(N2)C(=O)OCC(C)(C)C3)-c2cc(N3CC(C)N(C)C(C)C3)cnc21` [Example 171, (1r,2R,3S)-2,3-dimethyl-N-((1^5S,6^3S,4S,Z)-15,10,10-trimethyl-5,7-dioxo-1^2-((3S,5S)-3,4,5-trimethylpiperazin-1-yl)-1^8,1^9,6^1,6^2,6^3,6^4,6^5,6^6-octahydro-1^5H,1^7H-8-oxa-1(13,15)-pyrido[3',2':7,8][1, 5]oxazonino[5,6-a]indola-2(4,2)-thiazola-6(1,3)-pyridazinacycloundecaphane-4-yl)cyclopropane-1-carboxamide], the IC50 in assay [1] stood at 0.11 nM; in assay [2], 0.24 nM; in assay [3] it was 0.04 nM; in assay [4], 3.04 nM.

As to `CC1OCCCn2c(c3c4cc(ccc42)-c2csc(n2)CC(NC(=O)C24CC(C)(C2)C4)C(=O)N2CCCC(N2)C(=O)OCC(C)(C)C3)-c2cc(N3CC(C)N(C)C(C)C3)cnc21` [Example 172, 3-methyl-N-((1^5S,6^3S,4S,Z)-1^5,10,10-trimethyl-5,7-dioxo-1^2-((3S,5S)-3,4,5-trimethylpiperazin-1-y)-1^8,1^9,6^1,6^2,6^3,6^4,6^5,6^6-octahydro-1^5H,1^7H-8-oxa-1(13,15)-pyrido[3',2':7,8][1,5]oxazonino[5,6-a]indola-2(4,2)-thiazola-6(1,3)-pyridazinacycloundecaphane-4-yl)bicyclo[1.1.1]pentane-1-carb oxamide], the IC50 in assay [1] (Homo sapiens, AGS, 96 h) amounted to 1.1 nM; in assay [2], 2.02 nM; in assay [3] (Homo sapiens, SW-620, 96 h) it was 0.32 nM; in assay [4] it was 6.7 nM.

`CC1OCCCn2c(c3c4cc(ccc42)-c2csc(n2)CC(NC(=O)C2CC2C)C(=O)N2NC(C(=O)OCC(C)(C)C3)C3CC2C3)-c2cc(N3CCN(C)CC3)cnc21` [Example 183, (1S,2S)-2-methyl-N-((1^5S,6^4S,4S,Z)-1^5,10,10-trimethyl-1^2-(4-methylpiperazin-1-yl)-5,7-dioxo-1 ^8,1^9-dihydro-1^5H,1^7H-8-oxa-6^2,6^3-diaza-1(13,15)-pyrido[3',2':7,8][1,5]oxazonino[5,6-a]indola-2(4,2)-thiazola-6(2,4)-bicyclo[3.1.1]heptanacycloundecaphane-4-yl)cyclopropane-1-carboxamide]: the IC50 in assay [1] (Homo sapiens, AGS, 96 h) was determined as 2 nM; in assay [2], 2.7 nM; in assay [3] (Homo sapiens, SW-620, 96 h) it was 0.6 nM; in assay [4], 17.6 nM.

Values taken from EP4800018A1, “PAN-KRAS INHIBITOR AND USE THEREOF IN MEDICINES” (Betta Pharmaceuticals Co., Ltd., priority 2023, dated 2025).
